US20260097037A1, “FUSED RING COMPOUND HAVING GLP-1 RECEPTOR AGONIST EFFECT” (Shionogi & Co., Ltd., priority 2022, published 2026)
Read-outs that look alike come from different tables or passages of the source.

Target: T1, Human GLP-1 receptor stably expressing cells (hGLP-1R/CHO-K1 cells) (Homo sapiens, UniProt P43220)
T1 construct: expressed in transfected cells
Test: Measurement of GLP-1 receptor agonist activity (cAMP assay)
Assay type: cell-based
Details: for Emax: cAMP with 2 nM human GLP-1 (7-36) = 100%, DMSO only = 0%; for EC50: increase in cAMP concentration in hGLP-1R/CHO-K1 cells, 37° C. 1 hour
Protocol: Test Example 1: Measurement of GLP-1 Receptor Agonist Activity
Human GLP-1 receptor stably expressing cells (hGLP-1R/CHO-K1 cells) are cultured in an a-MEM medium (Sigma) containing 10% FBS (Hyclone), 2% GlutaMAX (Gibco), 1% G418 (Nacalai Tesque), and 1% Penicillin-Streptomycin Mixed Solution (Sigma) at 37° C. under 5% CO2 conditions, and recovered by treating a 10 fold diluted 5.0 g/1-trypsin/5.3 mmol/1-EDTA solution (Nacalai Tesque) and cryopreserved.
A DMSO solution containing the compound of the present invention or human GLP-1 (7-36) (Phoenix Pharmaceuticals) is dispensed into a 384-well microplate (Greiner) at 62.5 nL/well, and in addition, 400 μM Forskolin (Nacalai Tesque) is dispensed therein at 7.5 nL/well. Subsequently, the frozen GLP-1 R/CHO-K1 cells are thawed in a thermostatic bath at 37° C., suspended in HBSS buffer (GIBCO) containing 0.1% BSA (Sigma), 20 mM HEPES, 0.1 mM IBMX (Sigma), and 0.2 mM RO20-1724 (Calbiochem) at 2×10^4 cells/mL, and the cell suspension is added at 6 μL/well. The solution was incubated at 37° C. for 1 hour and intracellular cAMP concentration is measured using cAMP Gs dynamic kit (Cisbio) according to the protocol attached to the product. Specifically, a cAMP-d2/Anti-cAMP-Cryptate (1/1) mixture solution is added in a total amount of 6 μL/well, and is incubated at room temperature for 1 hour, and then, time-resolved fluorescence is measured using PHERAstar (BMG Labtech).
Assuming that the cAMP concentration when human GLP-1 (7-36) is dispensed to a final concentration of 2 nM is 100% and the cAMP concentration when only DMSO is dispensed is 0%, the 50% effective concentration (EC50) and the maximum effect (Emax) of the compound of the present invention are calculated using an increase in the cAMP concentration as an index, using TIBCO Spotfire (TIBCO Software). The dilution concentration or the dilution solvent are changed as necessary.
The compounds of the present invention were tested essentially as described above.

[1] = CHO-K1, maximum effect, read-out: Emax

T1 sequence (P43220 24-463): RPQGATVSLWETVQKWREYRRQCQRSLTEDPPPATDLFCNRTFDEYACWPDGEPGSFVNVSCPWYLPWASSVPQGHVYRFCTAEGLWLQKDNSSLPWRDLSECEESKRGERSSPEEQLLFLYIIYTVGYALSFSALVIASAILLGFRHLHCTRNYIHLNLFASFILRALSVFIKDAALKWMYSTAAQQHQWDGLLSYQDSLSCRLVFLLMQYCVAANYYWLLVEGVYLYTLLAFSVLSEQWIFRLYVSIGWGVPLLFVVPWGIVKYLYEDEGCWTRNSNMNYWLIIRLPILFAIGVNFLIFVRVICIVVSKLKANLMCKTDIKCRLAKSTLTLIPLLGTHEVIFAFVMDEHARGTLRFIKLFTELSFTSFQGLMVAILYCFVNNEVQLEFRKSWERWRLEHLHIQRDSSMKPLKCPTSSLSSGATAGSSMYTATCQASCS

Emax [1]	EC50	Emax (maximum effect)	Compound
121%	0.0963 nM	–	COc1cc(Cl)ccc1COc1nc2c(cc1C(F)F)CCN(Cc1nc3ccc(C(=O)O)cc3n1C[C@@H]1CCO1)[C@H]2C [Compound I-054]
94.7%	0.0587 nM	–	C[C@H]1c2nc(OCc3ccc(Cl)cc3Cl)c(Cl)cc2CCN1Cc1nc2c(F)cc(C(=O)O)cc2n1C[C@@H]1CCO1 [Compound I-084]
–	0.348 nM	133%	Cc1ccc(COc2nc3c(cc2Cl)CCN(Cc2nc4ccc(C(=O)O)cc4n2C[C@@H]2CCO2)[C@H]3C)cc1 [Compound I-018]
120%	0.119 nM	–	C[C@H]1c2nc(OCc3cc(F)c(Cl)cc3F)c(C#N)cc2CCN1Cc1nc2c(Cl)cc(C(=O)O)cc2n1C[C@@H]1CCO1 [Compound I-188]
131%	0.0303 nM	–	COc1cc(C(=O)O)cc2c1nc(CN1CCc3cc(C(F)F)c(OCc4ccc(Cl)cc4)nc3[C@@H]1C)n2C[C@@H]1CCO1 [Compound I-129]
128%	0.171 nM	–	C[C@H]1c2nc(OCc3ccc(Cl)c4ccoc34)c(C(F)(F)F)cc2CCN1Cc1nc2ccc(C(=O)O)cc2n1C[C@@H]1CCO1 [Compound I-014]
88%	26 nM	–	Cc1noc(COc2nc3c(cc2C(F)(F)F)CCN(Cc2nc4ccc(C(=O)O)cc4n2C[C@@H]2CCO2)[C@H]3C)n1 [Compound I-162]
126%	0.109 nM	–	C[C@H]1c2cc(OCc3c(F)cc(F)cc3F)c(Cl)cc2CCN1Cc1nc2ccc(C(=O)O)c(F)c2n1C[C@@H]1CCO1 [Compound I-044]
111%	0.0635 nM	–	C[C@H]1c2nc(OCc3cc(F)c(Cl)cc3F)c(C(F)F)cc2CCN1Cc1nc2ccc(C(=O)O)c(F)c2n1C[C@@H]1CCO1 [Compound I-126]
135%	0.0972 nM	–	C[C@H]1c2nc(OCc3ccc(Cl)cc3Cl)c(Cl)cc2CCN1Cc1nc2ccc(C(=O)O)cc2n1C[C@@H]1CCO1 [Compound I-020]
109%	0.121 nM	–	COc1cc(C(=O)O)cc2c1nc(CN1CCc3cc(C#N)c(OCc4ccccc4Cl)nc3[C@@H]1C)n2C[C@@H]1CCO1 [Compound I-145]
103%	0.0865 nM	–	C[C@H]1c2nc(OCc3c(F)cc(Cl)cc3F)c(Cl)cc2CCN1Cc1nc2c(F)cc(C(=O)O)cc2n1C[C@@H]1CCO1 [Compound I-088]
113%	0.0604 nM	–	C[C@H]1c2nc(OCc3cc(F)c(Cl)cc3F)c(C(F)F)cc2CCN1Cc1nc2c(F)cc(C(=O)O)cc2n1C[C@@H]1CCO1 [Compound I-114]
119%	0.173 nM	–	C[C@H]1c2nc(OCc3ccc(F)cc3Cl)c(C#N)cc2CCN1Cc1nc2c(Cl)cc(C(=O)O)cc2n1C[C@@H]1CCO1 [Compound I-182]
112%	0.194 nM	–	COc1cc(C(=O)O)cc2c1nc(CN1CCc3cc(Cl)c(OCc4ccccc4Cl)nc3[C@@H]1C)n2C[C@@H]1CCO1 [Compound I-068]
112%	0.101 nM	–	C[C@H]1c2nc(OCc3ccc(Cl)cc3)c(C(F)F)cc2CCN1Cc1nc2c(F)cc(C(=O)O)cc2n1C[C@@H]1CCO1 [Compound I-109]
110%	0.314 nM	–	C[C@H]1c2nc(OCc3ncc(Cl)cc3F)c(C(F)(F)F)cc2CCN1Cc1nc2ccc(C(=O)O)cc2n1C[C@@H]1CCO1 [Compound I-105]
104%	1.28 nM	–	C[C@H]1c2nc(OCc3ccc(OC(F)F)cc3F)c(C(F)F)cc2CCN1Cc1nc2ccc(C(=O)O)cc2n1C[C@@H]1CCO1 [Compound I-059]
102%	0.716 nM	–	C[C@H]1c2nc(CCc3ccc(Cl)cc3)c(C(F)(F)F)cc2CCN1Cc1nc2ccc(C(=O)O)cc2n1C[C@@H]1CCO1 [Compound I-095]
113%	0.0195 nM	–	COc1cc(C(=O)O)cc2c1nc(CN1CCc3cc(C(F)(F)F)c(NCc4cc(F)c(Cl)cc4F)nc3[C@@H]1C)n2C[C@@H]1CCO1 [Compound I-177]
112%	0.371 nM	–	C[C@H]1c2nc(OCc3ncc(Cl)cc3Cl)c(C(F)(F)F)cc2CCN1Cc1nc2ccc(C(=O)O)cc2n1C[C@@H]1CCO1 [Compound I-106]
112%	0.0833 nM	–	C[C@H]1c2nc(OCc3cc(F)c(Cl)cc3F)c(Cl)cc2CCN1Cc1nc2ccc(C(=O)O)cc2n1C[C@@H]1CCO1 [Compound I-021]

Emax [1]	EC50	Emax (maximum effect)	Compound
109%	0.0422 nM	–	COc1cc(C(=O)O)cc2c1nc(CN1CCc3cc(Cl)c(OCc4ccc(F)cc4F)nc3[C@@H]1C)n2C[C@@H]1CCO1 [Compound I-069]
108%	1.63 nM	–	C[C@H]1c2c(cc(C(F)(F)F)c3c2O[C@@](C)(c2ccc(Cl)cc2F)O3)CCN1Cc1nc2c(F)cc(C(=O)O)cc2n1C[C@@H]1CCO1 [Compound I-164]
112%	0.073 nM	–	C[C@H]1c2nc(OCc3ccc(Cl)cc3Cl)c(C(F)F)cc2CCN1Cc1nc2ccc(C(=O)O)c(F)c2n1C[C@@H]1CCO1 [Compound I-122]
99.7%	12.4 nM	–	C[C@H]1c2nc(OCc3ccc(Cl)cc3F)c(C(F)(F)F)cc2CCN1Cc1nc2c(-c3cnn(C)c3)cc(C(=O)O)cc2n1C[C@@H]1CCO1 [Compound I-178]
113%	0.307 nM	–	C[C@H]1c2nc(OCc3c(F)cc(F)cc3F)c(Cl)cc2CCN1Cc1nc2ccc(C(=O)O)cc2n1C[C@@H]1CCO1 [Compound I-025]
99.3%	0.89 nM	–	C[C@H]1c2nc(OCc3cc(Cl)cs3)c(C(F)(F)F)cc2CCN1Cc1nc2ccc(C(=O)O)cc2n1C[C@@H]1CCO1 [Compound I-148]
111%	0.038 nM	–	C[C@H]1c2nc(OCc3ccc(Cl)cc3F)c(C(F)F)cc2CCN1Cc1nc2c(F)cc(C(=O)O)cc2n1C[C@@H]1CCO1 [Compound I-108]
109%	0.343 nM	–	C[C@H]1c2nc(OCc3ccc(Cl)cc3F)c(C(F)F)cc2CCN1Cc1nc2ccc(C(=O)O)nc2n1C[C@@H]1CCO1 [Compound I-097]
88%	7.91 nM	–	C[C@H]1c2cc(OCc3ccccc3Cl)c(C(F)F)cc2CCN1Cc1nc2ccc(C(=O)O)cc2n1C[C@@H]1CCO1 [Compound I-007]
103%	0.247 nM	–	C[C@H]1c2nc(SCc3ccc(Cl)cc3F)c(C(F)(F)F)cc2CCN1Cc1nc2ccc(C(=O)O)cc2n1C[C@@H]1CCO1 [Compound I-096]
98.3%	0.0605 nM	–	COc1cc(C(=O)O)cc2c1nc(CN1CCc3cc(Cl)c(OCc4ccc(C)cc4)nc3[C@@H]1C)n2C[C@@H]1CCO1 [Compound I-067]
118%	1.16 nM	–	Cc1ccc(COc2nc3c(cc2C(F)F)CCN(Cc2nc4ccc(C(=O)O)nc4n2C[C@@H]2CCO2)[C@H]3C)cc1 [Compound I-098]
109%	0.205 nM	–	C[C@H]1c2nc(NCc3ccc(Cl)cc3Cl)c(C(F)(F)F)cc2CCN1Cc1nc2c(F)cc(C(=O)O)cc2n1C[C@@H]1CCO1 [Compound I-166]
96%	14.8 nM	–	CC1c2nc(OCc3ccc(Cl)cc3F)ncc2CCN1Cc1nc2ccc(C(=O)O)cc2n1C[C@@H]1CCO1 (some centres unmarked) [Compound I-078]
75.7%	886 nM	–	C[C@@H]1c2nc(OCc3ccc(Cl)cc3F)ncc2CCN1Cc1nc2ccc(C(=O)O)cc2n1C[C@@H]1CCO1 [Compound I-079]
124%	0.222 nM	–	C[C@H]1c2nc(OCc3ccc(Cl)cc3)c(C#N)cc2CCN1Cc1nc2c(Cl)cc(C(=O)O)cc2n1C[C@@H]1CCO1 [Compound I-189]
99.3%	0.155 nM	–	COc1cc(C(=O)O)cc2c1nc(CN1CCc3cc(C(F)(F)F)c4c(c3[C@@H]1C)O[C@@](C)(c1ccc(Cl)cn1)O4)n2C[C@@H]1CCO1 [Compound I-159]
115%	0.0293 nM	–	COc1cc(C(=O)O)cc2c1nc(CN1CCc3cc(C#N)c(OCc4cc(F)c(Cl)cc4F)nc3[C@@H]1C)n2C[C@@H]1CCO1 [Compound I-146]
106%	0.0353 nM	–	C[C@H]1c2nc(NCc3c(F)cc(Cl)cc3F)c(C(F)(F)F)cc2CCN1Cc1nc2c(Cl)cc(C(=O)O)cc2n1C[C@@H]1CCO1 [Compound I-172]
73%	28.2 nM	–	Cc1nonc1COc1nc2c(cc1C(F)(F)F)CCN(Cc1nc3ccc(C(=O)O)cc3n1C[C@@H]1CCO1)[C@H]2C [Compound I-161]
97%	0.638 nM	–	C[C@H]1c2nc(OCc3nc4ccccc4s3)c(C(F)(F)F)cc2CCN1Cc1nc2ccc(C(=O)O)cc2n1C[C@@H]1CCO1 [Compound I-050]
